ChEMBL document CHEMBL5727585, “Carboxylic acid URAT1 inhibitor containing diarylmethane structure, preparation method and use thereof” (2020)

Molecular target: T1, Solute carrier family 22 member 12 (Homo sapiens, UniProt Q96S37)
T1 sequence (Q96S37 whole entry): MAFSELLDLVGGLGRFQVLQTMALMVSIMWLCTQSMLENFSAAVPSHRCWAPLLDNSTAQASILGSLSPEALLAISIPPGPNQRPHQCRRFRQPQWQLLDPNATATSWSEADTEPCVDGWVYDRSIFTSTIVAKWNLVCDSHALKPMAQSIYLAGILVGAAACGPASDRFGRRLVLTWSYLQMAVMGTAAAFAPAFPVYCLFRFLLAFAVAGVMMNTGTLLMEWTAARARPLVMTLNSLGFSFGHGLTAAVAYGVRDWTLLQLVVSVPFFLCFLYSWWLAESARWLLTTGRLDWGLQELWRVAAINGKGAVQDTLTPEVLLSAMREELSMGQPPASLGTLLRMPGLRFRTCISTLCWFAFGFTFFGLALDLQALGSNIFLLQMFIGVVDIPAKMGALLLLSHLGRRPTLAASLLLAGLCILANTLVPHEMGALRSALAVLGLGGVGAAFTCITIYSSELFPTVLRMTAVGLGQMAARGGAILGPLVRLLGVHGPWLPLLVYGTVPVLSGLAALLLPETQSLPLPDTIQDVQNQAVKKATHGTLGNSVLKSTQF
Test: IC50 for Inhibition of the Test Compounds on URAT1: After trypsin digestion, the expression cells (HEK293) stably expressing URAT1 gene and mock cells were all inoculated into lysine-coated 24-well culture plates, with the cell inoculation density being 1×10^5 cells/well, and cultured in incubator at 37° C., 5% CO2 and saturated humidity for 2 days. The culture fluid in the culture plate was removed, and the cultured cells were washed twice with DPBS and subjected to warm bath in DPBS buffer solution at 37° C. for 10 min, and then a solution (500 μL) containing radioactive labeled probe substrate ([8-14C] uric acid) and 10 μM test compound (or blank) was used to substitute for DPBS, with the concentration of [8-14C] uric acid being 30 μM and the radiation intensity per well being 0.867 μCi. After 2 min, the reaction was terminated with ice-bathed DPBS buffer solution and washing was carried out for three times. Then 0.1 mol/L NaOH (500 μL) was added into each well to lyse the cells, the lysate was extracted into a scintillation vial and a scintillation fluid (Aquasol-2, 3 mL) was added, and the intensity of radioactivity in the sample was measured using a Tri-Carb 2910TR liquid scintillation analyzer (PerkinElmer, Waltham, USA). […] […]

Row | Compound | IC50
1 | CC(C)(Sc1nnc(Br)n1-c1ccc(C2CC2)c2ccccc12)C(=O)O | 2130 nM
2 | O=C(O)CCc1nnc(Br)n1-c1ccc(C2CC2)c2ccccc12 | 1810 nM
